Measurements as given in patent publication US4051237A, “Glycopeptide antibiotics Bu-2231 A and B and process for producing same” (priority 1975, dated 1977).
≈ marks a conversion by molar mass, not a printed value.

Tests used:
[1] = system: B. cereus ATCC 10702A; test: MIC by two-fold agar dilution; assay type: cell-based; details: Mueller-Hinton agar, unit assumed
[2] = system: S. lutea PCI-1001; test: MIC by two-fold agar dilution; assay type: cell-based; details: Mueller-Hinton agar, unit assumed
[3] = system: Mycobacterium 607, D46; test: MIC by two-fold agar dilution; assay type: cell-based; details: Medium #1001, unit assumed
[4] = system: C. tropicalis IAM 4157; test: MIC by two-fold agar dilution; assay type: cell-based; details: Ct-1 C. tropicalis IAM 4157; sabouraud agar; unit assumed
[5] = system: E. cloacae A21006; test: MIC by two-fold agar dilution; assay type: cell-based; details: Mueller-Hinton agar, unit assumed
[6] = system: E. coli A20665; test: MIC by two-fold agar dilution; assay type: cell-based; details: Mueller-Hinton agar, unit assumed
[7] = system: Sporotrichum sp.; test: MIC by two-fold agar dilution; assay type: cell-based; details: Sy-1 Sporotrichum sp.; sabouraud agar; unit assumed
[8] = system: F. moniliforme NRRL A2284; test: MIC by two-fold agar dilution; assay type: cell-based; details: Fm-1 F. moniliforme NRRL A2284; sabouraud agar; unit assumed
[9] = system: P. aeruginosa A20741; test: MIC by two-fold agar dilution; assay type: cell-based; details: Mueller-Hinton agar, unit assumed
[10] = system: E. coli NIHJ; test: MIC by two-fold agar dilution; assay type: cell-based; details: Mueller-Hinton agar, unit assumed
[11] = system: Mycobacterium 607, D47; test: MIC by two-fold agar dilution; assay type: cell-based; details: Medium #1001, unit assumed
[12] = system: T. rubrum D-55; test: MIC by two-fold agar dilution; assay type: cell-based; details: Tr-1 T. rubrum D-55; sabouraud agar; unit assumed
[13] = system: E. coli A20683; test: MIC by two-fold agar dilution; assay type: cell-based; details: Mueller-Hinton agar, unit assumed
[14] = system: Mycobacterium 607, D87; test: MIC by two-fold agar dilution; assay type: cell-based; details: Medium #1001, unit assumed
[15] = system: S. aureus 209P, R4; test: MIC by two-fold agar dilution; assay type: cell-based; details: Mueller-Hinton agar, unit assumed
Experimental: The minimum inhibitory concentrations (MIC) of Bu-2231 A and B were determined against a wide variety of bacteria and fungi by the two-fold agar dilution method. Mueller-Hinton agar medium was used for the determination of bacterial MIC's (gram-positive and gram-negative), Medium #1001 [Glycerol (3%). Na-glutamate (0.3%), peptone (0.2%), Na2 HPO4 (0.31%), KH2 PO4 (0.1%), ammonium citrate (0.005%), MgSO4.7H2 O (0.001%), agar (1.5%)] for acid-fast bacteria and sabouraud agar for fungi. The results are shown in Tables 9 and 10 comparatively with bleomycin and phleomycin. The antibacterial and antifungal activities of Bu-2231 A and B are much higher than those of the reference antibiotics.

[16] = system: K. pneumoniae A20328; test: MIC by two-fold agar dilution; assay type: cell-based; details: Mueller-Hinton agar, unit assumed
[17] = system: S. aureus 209P; test: MIC by two-fold agar dilution; assay type: cell-based; details: Mueller-Hinton agar, unit assumed
[18] = system: P. stuartii A20894; test: MIC by two-fold agar dilution; assay type: cell-based; details: Mueller-Hinton agar, unit assumed
[19] = system: S. aureus Smith A9537; test: MIC by two-fold agar dilution; assay type: cell-based; details: Mueller-Hinton agar, unit assumed
[20] = system: S. marcescens A21235; test: MIC by two-fold agar dilution; assay type: cell-based; details: Mueller-Hinton agar, unit assumed
[21] = system: Mucor sp.; test: MIC by two-fold agar dilution; assay type: cell-based; details: My-1 Mucor sp.; sabouraud agar; unit assumed
[22] = system: S. aureus #193; test: MIC by two-fold agar dilution; assay type: cell-based; details: Mueller-Hinton agar, unit assumed
[23] = system: C. tropicalis #125 A15051; test: MIC by two-fold agar dilution; assay type: cell-based; details: Ct-4 C. tropicalis #125 A15051; sabouraud agar; unit assumed
[24] = system: P. mirabilis A9554; test: MIC by two-fold agar dilution; assay type: cell-based; details: Mueller-Hinton agar, unit assumed
[25] = system: S. marcescens A20460; test: MIC by two-fold agar dilution; assay type: cell-based; details: Mueller-Hinton agar, unit assumed
[26] = system: B. mycoides "0"; assay type: cell-based; details: Mueller-Hinton agar, unit assumed
[27] = system: S. cerevisiae ATCC 9763; test: MIC by two-fold agar dilution; assay type: cell-based; details: Sc-1 S. cerevisiae ATCC 9763; sabouraud agar; unit assumed
[28] = mice, single subcutaneous injection, 16 days
Experimental: The acute toxicity of copper-free Bu-2231 A and B was determined in mice by a single subcutaneous injection. Groups of 3 mice were used for each dose level and the body weight was recorded for 16 days.

Compound | MIC [1] [µg/mL] | MIC [2] [µg/mL] | MIC [3] [µg/mL] | MIC [4] [µg/mL] | MIC [5] [µg/mL] | MIC [6] [µg/mL] | MIC [7] [µg/mL] | MIC [8] [µg/mL] | MIC [9] [µg/mL] | MIC [10] [µg/mL] | MIC [11] [µg/mL] | MIC [12] [µg/mL] | MIC [13] [µg/mL] | MIC [14] [µg/mL] | MIC [15] [µg/mL] | MIC [16] [µg/mL] | MIC [17] [µg/mL] | MIC [18] [µg/mL] | MIC [19] [µg/mL] | MIC [20] [µg/mL] | other results
Phleomycin [reference compound] | 0.2 | 0.4 | 0.2 | 3.1 | 50 | 0.4 | 12.5 | 12.5 | 6.3 | 0.8 | 0.2 | 3.1 | > 100 | 0.4 | 0.4 | > 100 | 0.2 | 0.8 | 0.1 | 0.8 | MIC [21]: 3.1 µg/mL; MIC [22]: 0.2 µg/mL; MIC [23]: 6.3 µg/mL; MIC [24]: 1.6 µg/mL; MIC [25]: 0.8 µg/mL; MIC [26]: 0.2 µg/mL; MIC [27]: 0.8 µg/mL
Cc1c(N)nc([C@H](CC(N)=O)NC[C@@H](N)C(N)=O)nc1C(=O)N[C@H](C(=O)N[C@H](C)[C@@H](O)CC(=O)N[C@@H](C(=O)NC(O[C@@H]1O[C@@H](C)[C@@H](N)[C@@H](O)[C@H]1O)C(O)c1nc(-c2nc(C(=O)NCCCNCCCCN)cs2)cs1)[C@@H](C)O)C(O[C@@H]1O[C@@H](CO)[C@H](O)[C@@H](O)[C@@H]1O[C@H]1O[C@H](CO)[C@@H](O)[C@@H](OC(N)=O)[C@@H]1O)c1cnc[nH]1 (stereo partly shown) [Bu-2231 B Cu-free] | 0.2 (≈ 0.125 µM) | 0.4 (≈ 0.249 µM) | 0.1 (≈ 0.0624 µM) | 0.8 (≈ 0.499 µM) | 6.3 (≈ 3.93 µM) | 0.05 (≈ 0.0312 µM) | 3.1 (≈ 1.93 µM) | 0.8 (≈ 0.499 µM) | 0.2 (≈ 0.125 µM) | 0.2 (≈ 0.125 µM) | 0.05 (≈ 0.0312 µM) | 0.8 (≈ 0.499 µM) | 12.5 (≈ 7.79 µM) | 0.1 (≈ 0.0624 µM) | 0.8 (≈ 0.499 µM) | 1.6 (≈ 0.998 µM) | 0.4 (≈ 0.249 µM) | 0.4 (≈ 0.249 µM) | 0.05 (≈ 0.0312 µM) | 1.6 (≈ 0.998 µM) | MIC [21]: 3.1 µg/mL (≈ 1.93 µM); MIC [22]: 0.4 µg/mL (≈ 0.249 µM); MIC [23]: 0.8 µg/mL (≈ 0.499 µM); MIC [24]: 0.2 µg/mL (≈ 0.125 µM); MIC [25]: 0.8 µg/mL (≈ 0.499 µM); MIC [26]: 0.2 µg/mL (≈ 0.125 µM); MIC [27]: 0.2 µg/mL (≈ 0.125 µM); LD50 [28]: > 50 mg/kg
